# According to patent US12214058B2, “Imaging methods using deuterated compounds” (Genentech, Inc., priority 2014, dated 2025):
# How the values were obtained:
# [1] = Microsomal stability assay, human liver microsomes; type: in vitro ADME; conditions: for amount of remaining compound: non-radiolabeled, 40 min
# Description: Microsomal stability assays The tracer [^18F][A]-d2 or [^18F][A] was dissolved in potassium phosphate (Kpi) buffer (100 mM) at concentration 500-600 μCi/mL. The non-radioactive 7 and 10 were dissolved in Kpi buffer at 10 μM concentration. The reaction vessel was charged with human or mouse liver microsome suspension (12.5 μL, 20 mg/mL) followed by Kpi buffer (388 μL, 10 mM), NADPH (50 μL, 10 mM) and incubated at 37° C. for 5-10 min. A solution of the radioactive [^18F][A]-d2 or [^18F][A] (50 μL, […]) or non-radioactive 7 or […] (50 μL, 10 μM) were added to the reaction vessel and the mixture was incubated at 37° C. […] The supernatant was analyzed by LCMS (System E).
# [2] = Microsomal stability assay, mouse liver microsomes; type: in vitro ADME; conditions: 5 min; for fraction of unmetabolized compound: non-radiolabeled
# Description: (§1) Microsomal stability assays The tracer [^18F][A]-d2 or [^18F][A] was dissolved in potassium phosphate (Kpi) buffer (100 mM) at concentration 500-600 μCi/mL. The non-radioactive 7 and 10 were dissolved in Kpi buffer at 10 μM concentration. The reaction vessel was charged with human or mouse liver microsome suspension (12.5 μL, 20 mg/mL) followed by Kpi buffer (388 μL, 10 mM), NADPH (50 μL, 10 mM) and incubated at 37° C. for 5-10 min. A solution of the radioactive [^18F][A]-d2 or [^18F][A] (50 μL, 250-300 μCi) or non-radioactive 7 or 8 (50 μL, 10 μM) were added to the reaction vessel and the mixture was incubated at 37° C. Aliquots (50 μL) of the reaction mixture were taken at 5, 15 and 45 minutes post addition of the tested compound, mixed with ice-cold acetonitrile (100 μL) and centrifuged. The supernatant was analyzed by LCMS (System E).
# [3] = Dynamic microPET imaging in mice; type: in vivo, mice (C57BL/6)
# Description: MicroPET Imaging The PET imaging was performed on Inveon PET/CT scanner (Siemens Medical Solutions USA Inc.). Animals anesthetized with sevoflurane were placed head-first, prone position on the scanner bed and dynamic 45 min scans were initiated. Approximately 3.7 MBq of ^18F-radiolabeled tracer in isotonic solution (100-130 μL) was administered as 60 second intravenous infusion via the tail vein. Body temperature was measured by a rectal probe and maintained with warm air flow at 37° C. Full-body iterative image reconstructions were obtained using maximum a posteriori algorithm (MAP, hyperparameter β 0.05) and corrected for signal attenuation using the tissue density obtained from CT. Projections were created with PMOD 3.305 (PMOD Technologies, Ltd., Zurich, Switzerland) and used to obtain quantitative activity levels in each organ of interest using region-of-interest analysis.
# [4] = test system: tau (NFTs) in human brain tissues; assay: Autoradiography on postmortem human brain tissues; type: binding
# Description: Autoradiography The tracer [^18F][A] or [^18F][A]-d2 was dissolved in PBS containing 5% DMSO and 5% ethanol at final concentration 40 μCi/mL. Then 0.5 ml of stock solution was transferred to a microscope slide with 5 μm thick freshly dried section of a tissue and incubated for 90 min at room temperature. The slides were washed by dipping into following solutions: PBS for 1 min, 70% ethanol 2 min, 30% ethanol 2 min and PBS 1 min. The samples were dried at room temperature for 30 min and exposed to phosphorimager plate for 20 h. The exposed plates were scanned at 25 μm resolution.
# Autoradiographic evaluation of [^18F][A] and [^18F][A]-d2 was performed using brain tissues collected postmortem from human donors. […] The positive staining was found in grey matter of tissues containing high level of NFTs and high AD-amyloid characterized as Braak score 5. […] The NFT and Aβ-amyloid burden was measured by standard immunohistochemical methods.
# [5] = Microsomal stability assay, rhesus liver microsomes; type: in vitro ADME
# Description: as §1, with “E). The radiolabeled tracers [^18F][A] and [^18F][A]-d2 (n=3) were incubated with human, rhesus or mouse liver microsome suspension with or without NADPH at 37° C. and the mixture was analyzed for a presence of radioactive metabolites at 5, 15 and 45 min. In the presence of mouse and rhesus liver microsomes, both the [^18F][A] and [^18F][A]-d2 metabolized rapidly to ^18F-fluoride (retention time (rt)=0.38 min), and two radioactive metabolites M2 and M1 (rt=1.2 and 1.4 min). […]” for “E).”
# [6] = biological target: tau aggregates in AD patient tissues; conditions: cited from earlier work
Compound,amount of remaining compound [1] [%],fraction of unmetabolized compound [2] [%],"bone uptake ([3]; n=6, 30-45 min post tracer injection) [% ID/g]","staining of negative control tissues ([4]; high or moderate amyloid burden but no NFTs, Braak score 3 or 2)","autoradiographic binding pattern ([4]; human brain tissues, positive staining in grey matter with high NFTs, Braak score 5)",stability of parent compound compared with mouse liver microsomes [5],"fraction attributed to parent compound ([1]; radiolabeled, 45 min incubation, n=3) [%]","amount of parent compound ([2]; radiolabeled, n=3) [%]","uptake in liver and kidneys, comparison of the two tracers ([3]; n=6)","peak uptake in brain ([3]; n=6, i.v., dynamic PET) [% ID/g]","Kd ([6]; AD patient tissues, read-out: affinity for tau aggregates in AD patient tissues) [nM]",selectivity for tau over Aβ amyloid [6] [fold]
"FCCC1CCN(c2ccn3c(n2)nc2ccccc23)CC1 [[A], 2-(1-(benzo[4,5]imidazo[1,2-a]pyrimidine-2-yl)piperidin-4-yl)-1-fluoroethane, reference compound]",15,2,31.2±4.8,–,–,–,–,–,–,–,–,–
"[2H]C([2H])(F)CC1CCN(c2ccn3c(n2)nc2ccccc23)CC1 [[A]-d2, 1,1-dideutero-2-(1-(benzo[4,5]imidazo[1,2-a]pyrimidine-2-yl)piperidin-4-yl)-1-fluoroethane]",56,11,–,–,–,–,–,–,–,–,–,–
"[18F]CCC1CCN(c2ccn3c(n2)nc2ccccc23)CC1 [[^18F][A], 2-(1-(benzo[4,5]imidazo[1,2-a]pyrimidine-2-yl)piperidin-4-yl)-1-[^18F]fluoroethane, reference compound]",–,–,–,not positively stained,tau specific binding patterns,slightly more stable,35.7±0.9,1.6±0.9,indistinguishable,8.3±2.0,22,27
